Test: Mass balance (excretion of total radioactivity) after 2-h IV infusion of [^14C]brincidofovir
Format: in vivo, male Sprague Dawley rats
Procedure: All animals were obtained from Hilltop Lab Animals, Inc. (Scottdale, Pa.). Rats weighed between 214 and 265 g at dosing. […] Three dosing formulations (one for high dose IV, one for low dose IV, and one for PO dose) were prepared at QPS on the day of dosing. […] The IV dose formulation for Group 5 and the PO dose formulation for Groups 6 and 7 contained higher concentration of buffer so that the final buffer concentration was approximately 10 mM in all dose formulations. […] Urine samples were collected from each animal into pre-labeled urine collection tubes at pre-dose (overnight) and at intervals of 0-8 h, 8-24 h, and at every subsequent 24 h interval until 168 h post-dose. All urine specimens were collected over dry ice. The total weight of each urine collection was documented, and the samples were stored frozen at approximately −70° C. until LSC analysis. Samples were maintained at approximately −70° C. following analysis, and were saved for further analysis, to be conducted under a separate protocol. Feces samples were collected from each animal into a pre-labeled feces collection tube at pre-dose (overnight) and at 24 h intervals post-dose until 168 h post-dose. Feces specimens were collected over dry ice and the total weight of each feces sample was documented. Feces samples were stored at approximately −70° C. until homogenization and LSC analysis, were maintained at approximately −70° C. following analysis, and were saved for further analysis, to be conducted under a separate protocol. Feces were homogenized and analyzed for total radioactivity content. […] The actual weights of the individual aliquots and the amount of solvent used in homogenization were recorded. Pre-weighed portions of each feces homogenate were placed into a CombustoCone® that contained a CombustoPad®, allowed to dry over-night in a fume hood, and were burned completely in the sample oxidizer. […] Volumes or weights of sample aliquots were documented in the study records.

## CCCCCCCCCCCCCCCCOCCCOP(=O)(O)CO[C@H](CO)Cn1ccc(N)nc1=O [[^14C]brincidofovir]
15 mg/kg 2-h IV, 168 h
  Radioactivity recovered in feces: 42.2 % of administered dose
  Radioactivity recovered in urine: 51.2 % of administered dose
168 h
  Total recovery in urine and feces combined: 93.5 % of the dose
Feces 0-24 h, Mean, 15 mg/kg IV
  Percent Recovery of total radioactivity: 36.7 % Dose
Feces 0-24 h, Rat 01, 15 mg/kg IV
  Percent Recovery of total radioactivity: 37.3 % Dose
Feces 0-24 h, Rat 02, 15 mg/kg IV
  Percent Recovery of total radioactivity: 37.6 % Dose
Feces 0-24 h, Rat 03, 15 mg/kg IV
  Percent Recovery of total radioactivity: 35.1 % Dose
Feces 24-48 h, Mean, 15 mg/kg IV
  Percent Recovery of total radioactivity: 3.8 % Dose
Feces 24-48 h, Rat 01, 15 mg/kg IV
  Percent Recovery of total radioactivity: 3.4 % Dose
Feces 24-48 h, Rat 02, 15 mg/kg IV
  Percent Recovery of total radioactivity: 4.6 % Dose
Feces 24-48 h, Rat 03, 15 mg/kg IV
  Percent Recovery of total radioactivity: 3.5 % Dose
Feces 48-72 h, Mean, 15 mg/kg IV
  Percent Recovery of total radioactivity: 0.9 % Dose
Feces 48-72 h, Rat 01, 15 mg/kg IV
  Percent Recovery of total radioactivity: 0.9 % Dose
Feces 48-72 h, Rat 02, 15 mg/kg IV
  Percent Recovery of total radioactivity: 1.0 % Dose
Feces 48-72 h, Rat 03, 15 mg/kg IV
  Percent Recovery of total radioactivity: 0.8 % Dose
Feces 72-96 h, Mean, 15 mg/kg IV
  Percent Recovery of total radioactivity: 0.4 % Dose
Feces 72-96 h, Rat 01, 15 mg/kg IV
  Percent Recovery of total radioactivity: 0.4 % Dose
Feces 72-96 h, Rat 02, 15 mg/kg IV
  Percent Recovery of total radioactivity: 0.4 % Dose
Feces 72-96 h, Rat 03, 15 mg/kg IV
  Percent Recovery of total radioactivity: 0.4 % Dose
Feces 96-120 h, Mean, 15 mg/kg IV
  Percent Recovery of total radioactivity: 0.2 % Dose
Feces 96-120 h, Rat 01, 15 mg/kg IV
  Percent Recovery of total radioactivity: 0.2 % Dose
Feces 96-120 h, Rat 02, 15 mg/kg IV
  Percent Recovery of total radioactivity: 0.2 % Dose
Feces 96-120 h, Rat 03, 15 mg/kg IV
  Percent Recovery of total radioactivity: 0.2 % Dose
Feces 120-144 h, Mean, 15 mg/kg IV
  Percent Recovery of total radioactivity: 0.1 % Dose
Feces 120-144 h, Rat 01, 15 mg/kg IV
  Percent Recovery of total radioactivity: 0.1 % Dose
Feces 120-144 h, Rat 02, 15 mg/kg IV
  Percent Recovery of total radioactivity: 0.1 % Dose
Feces 120-144 h, Rat 03, 15 mg/kg IV
  Percent Recovery of total radioactivity: 0.1 % Dose
Feces 144-168 h, Mean, 15 mg/kg IV
  Percent Recovery of total radioactivity: 0.1 % Dose
Feces 144-168 h, Rat 01, 15 mg/kg IV
  Percent Recovery of total radioactivity: 0.1 % Dose
Feces 144-168 h, Rat 02, 15 mg/kg IV
  Percent Recovery of total radioactivity: 0.1 % Dose
Feces 144-168 h, Rat 03, 15 mg/kg IV
  Percent Recovery of total radioactivity: 0.1 % Dose
Feces Subtotal (0-168 h), Mean, 15 mg/kg IV
  Percent Recovery of total radioactivity: 42.2 % Dose
Feces Subtotal (0-168 h), Rat 01, 15 mg/kg IV
  Percent Recovery of total radioactivity: 42.4 % Dose
Feces Subtotal (0-168 h), Rat 02, 15 mg/kg IV
  Percent Recovery of total radioactivity: 44.2 % Dose
Feces Subtotal (0-168 h), Rat 03, 15 mg/kg IV
  Percent Recovery of total radioactivity: 40.2 % Dose
Total urine + feces (0-168 h), Mean, 15 mg/kg IV
  Percent Recovery of total radioactivity: 93.5 % Dose
Total urine + feces (0-168 h), Rat 01, 15 mg/kg IV
  Percent Recovery of total radioactivity: 93.6 % Dose
Total urine + feces (0-168 h), Rat 02, 15 mg/kg IV
  Percent Recovery of total radioactivity: 91.6 % Dose
Total urine + feces (0-168 h), Rat 03, 15 mg/kg IV
  Percent Recovery of total radioactivity: 95.2 % Dose
Urine 0-8 h, Mean, 15 mg/kg IV
  Percent Recovery of total radioactivity: 31.0 % Dose
Urine 0-8 h, Rat 01, 15 mg/kg IV
  Percent Recovery of total radioactivity: 33.0 % Dose
Urine 0-8 h, Rat 02, 15 mg/kg IV
  Percent Recovery of total radioactivity: 29.3 % Dose
Urine 0-8 h, Rat 03, 15 mg/kg IV
  Percent Recovery of total radioactivity: 30.7 % Dose
Urine 8-24 h, Mean, 15 mg/kg IV
  Percent Recovery of total radioactivity: 12.8 % Dose
Urine 8-24 h, Rat 01, 15 mg/kg IV
  Percent Recovery of total radioactivity: 10.7 % Dose
Urine 8-24 h, Rat 02, 15 mg/kg IV
  Percent Recovery of total radioactivity: 11.5 % Dose
Urine 8-24 h, Rat 03, 15 mg/kg IV
  Percent Recovery of total radioactivity: 16.2 % Dose
Urine 24-48 h, Mean, 15 mg/kg IV
  Percent Recovery of total radioactivity: 4.1 % Dose
Urine 24-48 h, Rat 01, 15 mg/kg IV
  Percent Recovery of total radioactivity: 4.3 % Dose
Urine 24-48 h, Rat 02, 15 mg/kg IV
  Percent Recovery of total radioactivity: 3.6 % Dose
Urine 24-48 h, Rat 03, 15 mg/kg IV
  Percent Recovery of total radioactivity: 4.5 % Dose
Urine 48-72 h, Mean, 15 mg/kg IV
  Percent Recovery of total radioactivity: 1.7 % Dose
Urine 48-72 h, Rat 01, 15 mg/kg IV
  Percent Recovery of total radioactivity: 1.6 % Dose
Urine 48-72 h, Rat 02, 15 mg/kg IV
  Percent Recovery of total radioactivity: 1.6 % Dose
Urine 48-72 h, Rat 03, 15 mg/kg IV
  Percent Recovery of total radioactivity: 1.9 % Dose
Urine 72-96 h, Mean, 15 mg/kg IV
  Percent Recovery of total radioactivity: 0.8 % Dose
Urine 72-96 h, Rat 01, 15 mg/kg IV
  Percent Recovery of total radioactivity: 0.8 % Dose
Urine 72-96 h, Rat 02, 15 mg/kg IV
  Percent Recovery of total radioactivity: 0.8 % Dose
Urine 72-96 h, Rat 03, 15 mg/kg IV
  Percent Recovery of total radioactivity: 0.8 % Dose
Urine 96-120 h, Mean, 15 mg/kg IV
  Percent Recovery of total radioactivity: 0.4 % Dose
Urine 96-120 h, Rat 01, 15 mg/kg IV
  Percent Recovery of total radioactivity: 0.4 % Dose
Urine 96-120 h, Rat 02, 15 mg/kg IV
  Percent Recovery of total radioactivity: 0.3 % Dose
Urine 96-120 h, Rat 03, 15 mg/kg IV
  Percent Recovery of total radioactivity: 0.5 % Dose
Urine 120-144 h, Mean, 15 mg/kg IV
  Percent Recovery of total radioactivity: 0.2 % Dose
Urine 120-144 h, Rat 01, 15 mg/kg IV
  Percent Recovery of total radioactivity: 0.2 % Dose
Urine 120-144 h, Rat 02, 15 mg/kg IV
  Percent Recovery of total radioactivity: 0.2 % Dose
Urine 120-144 h, Rat 03, 15 mg/kg IV
  Percent Recovery of total radioactivity: 0.3 % Dose
Urine 144-168 h, Mean, 15 mg/kg IV
  Percent Recovery of total radioactivity: 0.2 % Dose
Urine 144-168 h, Rat 01, 15 mg/kg IV
  Percent Recovery of total radioactivity: 0.2 % Dose
Urine 144-168 h, Rat 02, 15 mg/kg IV
  Percent Recovery of total radioactivity: 0.1 % Dose
Urine 144-168 h, Rat 03, 15 mg/kg IV
  Percent Recovery of total radioactivity: 0.2 % Dose
Urine Subtotal (0-168 h), Mean, 15 mg/kg IV
  Percent Recovery of total radioactivity: 51.2 % Dose
Urine Subtotal (0-168 h), Rat 01, 15 mg/kg IV
  Percent Recovery of total radioactivity: 51.2 % Dose
Urine Subtotal (0-168 h), Rat 02, 15 mg/kg IV
  Percent Recovery of total radioactivity: 47.5 % Dose
Urine Subtotal (0-168 h), Rat 03, 15 mg/kg IV
  Percent Recovery of total radioactivity: 55.1 % Dose
rat, in vivo
  Fecal excretion in first 24 h: 36.7 % of the dose
  Fecal excretion in first 24 h, share of radioactivity excreted in feces: 87%
  Share of urinary and fecal excretion in first 24 h: ~86%
  Urinary excretion in first 24 h: 43.8 % of the dose
  Urinary excretion in first 24 h, share of radioactivity excreted in urine: 86%
